Data: patent US10604494B2, “Acylated N-(1 ,2,5-oxadiazol-3-yl)-, N-(1,3,4-oxadiazol-2-yl)-, N-(tetrazol-5-yl)- and N-(triazol-5-yl)-aryl carboxamides, and use thereof as herbicides” (Bayer CropScience Aktiengesellschaft, priority 2015, dated 2020)

Columns and labels:
Format in all cases: in vivo
Veronica persica [1] = test: Post-emergence herbicidal action against harmful plants; details: 504 h, one-leaf stage, application rate 80 g/ha, assessed visually after about 3 weeks vs untreated controls, 100% = plants have died, 0% = like control plants, read-out: efficacy (herbicidal action in percent) against Veronica persica
Procedure: (§1) 2. Post-Emergence Herbicidal Action Against Harmful Plants Seeds of monocotyledonous and dicotyledonous weed and crop plants are laid out in sandy loam soil in wood-fiber pots, covered with soil and cultivated in a greenhouse under good growth conditions. 2 to 3 weeks after sowing, the test plants are treated at the one-leaf stage. The compounds of the invention, formulated in the form of wettable powders (WP) or as emulsion concentrates (EC), are then sprayed onto the green parts of the plants in the form of an aqueous suspension or emulsion at a water application rate equating to 600 to 800 I/ha, with addition of 0.2% wetting agent. After the test plants have been left to stand in the greenhouse under optimal growth conditions for about 3 weeks, the action of the preparations is assessed visually in comparison to untreated controls (herbicidal action in percent (%): 100% activity=the plants have died, 0% activity=like control plants). In this case, for example, compound Nos. 1-028, 1-085, 1-086, 1-206, 1-447, 1-448, 1-449, 1-453, 1-457, 1-460, 1-470, 1-471, 1-472, 1-487, 2-500, 3-143, 3-146, 3-487, 3-491, 3-492, 4-144, 4-188, 13-001, 13-031 and 13-032, at an application rate of 80 g/ha, each show at least 80% efficacy against Abutilon theophrasti and Veronica persica.

Abutilon theophrasti [2] = test: as above; details: 504 h, one-leaf stage, application rate 80 g/ha, assessed visually after about 3 weeks vs untreated controls, 100% = plants have died, 0% = like control plants, read-out: efficacy (herbicidal action in percent) against Abutilon theophrasti
Procedure: as §1

Veronica persica [3] = test: Pre-emergence herbicidal action against harmful plants; details: 504 h, application rate 320 g/ha, scored visually after 3 weeks vs untreated controls, 100% = plants have died, 0% = like control plants, read-out: efficacy (herbicidal activity in percent) against Veronica persica
Source text: (§2) 1. Pre-Emergence Herbicidal Action Against Harmful Plants Seeds of monocotyledonous and dicotyledonous weed plants and crop plants are laid out in sandy loam in wood-fiber pots and covered with soil. The compounds of the invention, formulated in the form of wettable powders (WP) or as emulsion concentrates (EC), are then applied to the surface of the covering soil in the form of an aqueous suspension or emulsion at a water application rate equating to 600 to 800 I/ha, with addition of 0.2% wetting agent. After the treatment, the pots are placed in a greenhouse and kept under good growth conditions for the trial plants. The damage to the test plants is scored visually after a test period of 3 weeks by comparison with untreated controls (herbicidal activity in percent (%): 100% activity=the plants have died, 0% activity=like control plants). In this case, for example, compound Nos. 1-086, 1-028, 1-206, 1-447, 1-448, 1-449, 1-454, 1-458, 1-470, 1-471, 1-472, 1-477, 1-487, 2-477, 2-480, 2-500, 3-143, 3-475, 3-491, 4-188, 4-495, 4-430, 4-496, 13-001, 13-031 and 13-032, at an application rate of 320 g/ha, each show at least 80% efficacy against Abutilon theophrasti and Veronica persica.

Abutilon theophrasti [4] = test: as above; details: 504 h, application rate 320 g/ha, scored visually after 3 weeks vs untreated controls, 100% = plants have died, 0% = like control plants, read-out: efficacy (herbicidal activity in percent) against Abutilon theophrasti
Source text: as §2

CCOC(=O)c1c(SC)ccc(C(=O)N(C(=O)c2ccc(SC)c(C(=O)OCC)c2C)c2nnnn2C)c1C [1-453, 3-(ethoxycarbonyl)-2-methyl-4-(methylsulfanyl)-N-(3-(ethoxycarbonyl)-2-methyl-4-(methylsulfanyl)benzoyl)-N-(1-methyltetrazol-5-yl)benzamide]
≥ 80%: pest or weed control at 80 g/ha (Veronica persica [1]) | pest or weed control at 80 g/ha (Abutilon theophrasti [2])

CC(C)c1c(C(=O)N(C(=O)c2ccc(C(F)(F)F)c(S(C)(=O)=O)c2C(C)C)c2nnnn2C)ccc(C(F)(F)F)c1S(C)(=O)=O [1-206]
≥ 80%: pest or weed control at 80 g/ha (Veronica persica [1]) | pest or weed control at 80 g/ha (Abutilon theophrasti [2]) | pest or weed control at 320 g/ha (Veronica persica [3]) | pest or weed control at 320 g/ha (Abutilon theophrasti [4])

CCOc1c(C(=O)N(C(=O)c2ccc(C(F)(F)F)c(SC)c2OCC)c2nnnn2C)ccc(C(F)(F)F)c1SC [1-471]
≥ 80%: pest or weed control at 80 g/ha (Veronica persica [1]) | pest or weed control at 80 g/ha (Abutilon theophrasti [2]) | pest or weed control at 320 g/ha (Veronica persica [3]) | pest or weed control at 320 g/ha (Abutilon theophrasti [4])

CSc1cc(C)cc(C(=O)N(C(=O)c2cc(C)cc(SC)c2C)c2nnnn2C)c1C [1-460]
≥ 80%: pest or weed control at 80 g/ha (Veronica persica [1]) | pest or weed control at 80 g/ha (Abutilon theophrasti [2])

Cc1c(C(=O)N(C(=O)c2ccc(C(F)(F)F)c(N(C)C)c2C)c2nnnn2C)ccc(C(F)(F)F)c1N(C)C [1-448]
≥ 80%: pest or weed control at 80 g/ha (Veronica persica [1]) | pest or weed control at 80 g/ha (Abutilon theophrasti [2]) | pest or weed control at 320 g/ha (Veronica persica [3]) | pest or weed control at 320 g/ha (Abutilon theophrasti [4])

CSc1c(OCC(F)(F)F)ccc(C(=O)N(C(=O)c2ccc(OCC(F)(F)F)c(SC)c2C)c2nnnn2C)c1C [1-458]
≥ 80%: pest or weed control at 320 g/ha (Veronica persica [3]) | pest or weed control at 320 g/ha (Abutilon theophrasti [4])

CNc1c(C(F)(F)F)ccc(C(=O)N(C(=O)c2ccc(C(F)(F)F)c(NC)c2C)c2nnnn2C)c1C [1-449]
≥ 80%: pest or weed control at 80 g/ha (Veronica persica [1]) | pest or weed control at 80 g/ha (Abutilon theophrasti [2]) | pest or weed control at 320 g/ha (Veronica persica [3]) | pest or weed control at 320 g/ha (Abutilon theophrasti [4])

CC[S+]([O-])c1c(S(C)(=O)=O)ccc(C(=O)N(C(=O)c2ccc(S(C)(=O)=O)c([S+]([O-])CC)c2C)c2nonc2C)c1C (centres unmarked) [4-188]
≥ 80%: pest or weed control at 80 g/ha (Veronica persica [1]) | pest or weed control at 80 g/ha (Abutilon theophrasti [2]) | pest or weed control at 320 g/ha (Veronica persica [3]) | pest or weed control at 320 g/ha (Abutilon theophrasti [4])

Cc1c(C(=O)N(C(=O)c2ccc(C(F)(F)F)c(N)c2C)c2nnnn2C)ccc(C(F)(F)F)c1N [1-447]
≥ 80%: pest or weed control at 80 g/ha (Veronica persica [1]) | pest or weed control at 80 g/ha (Abutilon theophrasti [2]) | pest or weed control at 320 g/ha (Veronica persica [3]) | pest or weed control at 320 g/ha (Abutilon theophrasti [4])

CCOc1c(C(=O)N(C(=O)c2ccc(C(F)(F)F)c(S(C)(=O)=O)c2OCC)c2nnnn2C)ccc(C(F)(F)F)c1S(C)(=O)=O [1-472]
≥ 80%: pest or weed control at 80 g/ha (Veronica persica [1]) | pest or weed control at 80 g/ha (Abutilon theophrasti [2]) | pest or weed control at 320 g/ha (Veronica persica [3]) | pest or weed control at 320 g/ha (Abutilon theophrasti [4])

CC(=O)N(C(=O)c1ccc(C(F)(F)F)cc1S(C)(=O)=O)c1nnnn1C [13-001, 2-(methylsulfonyl)-4-trifluoromethyl-N-acetyl-N-(1-methyltetrazol-5-yl)benzamide]
≥ 80%: pest or weed control at 80 g/ha (Veronica persica [1]) | pest or weed control at 80 g/ha (Abutilon theophrasti [2]) | pest or weed control at 320 g/ha (Veronica persica [3]) | pest or weed control at 320 g/ha (Abutilon theophrasti [4])

CSc1c(N(C)C)ccc(C(=O)N(C(=O)c2ccc(N(C)C)c(SC)c2C)c2nnnn2C)c1C [1-454]
≥ 80%: pest or weed control at 320 g/ha (Veronica persica [3]) | pest or weed control at 320 g/ha (Abutilon theophrasti [4])

Cc1nonc1N(C(=O)c1ccc(C(F)(F)F)c([S+](C)[O-])c1C)C(=O)c1ccc(C(F)(F)F)c([S+](C)[O-])c1C (centres unmarked) [4-144]
≥ 80%: pest or weed control at 80 g/ha (Veronica persica [1]) | pest or weed control at 80 g/ha (Abutilon theophrasti [2])

CCOc1ccc(C(=O)N(C(=O)c2ccc(OCC)c(SC)c2C)c2nnnn2C)c(C)c1SC [1-457]
≥ 80%: pest or weed control at 80 g/ha (Veronica persica [1]) | pest or weed control at 80 g/ha (Abutilon theophrasti [2])
